System: 922993-354-T-J3-PDC complex spheroid viability
Assay: Anticancer human tumor 922993-354-T-J3-PDC patient-derived endometrial carcinoma cell line growth inhibition [POLQ]
Details: for IC50: curve of first compound; for viability, T/C: stronger effect = lower value; active means viability on the fitted dose curve at most 10% of control; inactive means the rest
Experimental: Multicellular complex tumor spheroid response to Polymerase (POL) inhibitors (novobiocin, ART-558, RP6685) in combination with a variety of drugs and investigational agents in selected tumor cell lines
The POL inhibitors (novobiocin, ART-558, and RP6685) were evaluated both individually and in combination with standard of care and investigational anticancer small molecules within a complex spheroid model of solid tumors. . Complex spheroids include a stromal component modeled by human endothelial cells (HUVEC) and fibroblasts modeled by human mesenchymal stem cells (MSCs). The concentration ranges selected for each drug and investigational agent were based upon clinically achievable concentrations if the clinical Cmax of the agent was known.
Compounds. The drugs and investigational agents: novobiocin (NSC847541), ART-558 (NSC835418), RP-6685 (NSC848927), peposertib (NSC802822), ceralasertib (NSC780249), elimusertib (NSC800525), camonsertib (NSC841442), AZD-1390 (NSC803789), olaparib (NSC753686), talazoparib (NSC767125), rucaparib (NSC756644), sotorasib (NSC818433), MRTX-1133 (NSC836407), SN-38 (NSC673596), topotecan (NSC609699), epotoside (NSC141540), doxorubicin (NSC123127), gemcitabine (NSC613327), 5-fluorouracil (NSC19893), paclitaxel (NSC125973), vemurafenib (NSC761431), MSA-2 (NSC828583), SN-011 (NSC837082), adavosertib (NSC754352), prexasertib (NSC758257), carboplatin (NSC241240) and oxaliplatin (NSC266046), were obtained from the National Cancer Institute (NCI) Developmental Therapeutics Program Chemical Repository (21). The FDA-approved anticancer drug set is available from the Developmental Therapeutics Program at https://dtp.cancer.gov/organization/dscb/obtaining/. […] The stock solutions were prepared in dimethyl sulfoxide (DMSO, Sigma-Aldrich, St. Louis, MO, cat. D2650), except for the platinum compounds which were prepared in saline (Quality Biological, Gaithersburg, MD, cat. 114-055-101), at 800-fold the tested concentration and stored at -70 degrees C prior to their use. All drugs and investigational agents were tested over a range starting from a high concentration at or near the clinical Cmax and decreasing in half-log increments. If the clinical Cmax for an agent had not been determined, the highest concentration tested was 10 microM, except for SN-38, which was tested at a high concentration of 1 microM.
Cell Culture. All cells were maintained in an incubator at 37 degrees C and 5% CO2 with 95% humidity. The PDC lines were cultured according to standard operating procedures established by the NCI PDMR (https://pdmr.cancer.gov). Table 3 of the manuscript, lists the cell lines along with the number of the three cell types plated to form the mct-spheroids and media for tumor cell growth. After thawing, all PDC lines, except 997537-175-T-J1-PDC and 415267-285-R-J2-PDC, were cultured in Matrigel-coated flasks prepared with a working solution of 1X Ham's F-12 nutrient mix, without supplementation (Thermo Fisher Scientific, cat. 11765054), 100 U/mL penicillin-streptomycin (Thermo Fisher Scientific, cat. 15140122), and 2.5% Matrigel (Corning Inc., Corning, NY, cat. 354248) for the first three passages. The two PDC lines 997537-175-T-J1-PDC and 415267-285-R-J2-PDC were cultured on uncoated flasks. The 857933-349-R-J2-PDC line was cultured in 6C/Colon 1B media containing advanced DMEM/F-12 (Thermo Fisher Scientific, cat. 12634028), 10 mM HEPES (Thermo Fisher Scientific, cat. 15630080), 1X GlutaMAX supplement (Thermo Fisher Scientific, cat. 35050061), 0.1 mg/mL primocin (InvivoGen, San Diego, CA, cat. ant-pm-2), 10% defined fetal bovine serum, heat inactivated (HyClone Laboratories Inc., Logan, UT, cat. SH30070.03HI), 50% L-WRN conditioned media (ATCC, cat. CRL-3276), 1.25 mM N-Acetyl-L-cysteine (Sigma-Aldrich, cat. A9165), 10 mM nicotinamide (Sigma-Aldrich, cat. N0636), 1X B-27 supplement (Thermo Fisher Scientific, cat. 17504044), 1X N-2 supplement (Thermo Fisher Scientific, cat. […]

[1] = second compound 0.0316 µM, first compound 0.0316 µM
[2] = second compound 0.0316 µM, first compound 0.1 µM
[3] = second compound 0.1 µM, first compound 0.0316 µM
[4] = second compound 0.1 µM, first compound 0.1 µM
[5] = second compound 0.316 µM, first compound 0.0316 µM
[6] = second compound 0.316 µM, first compound 0.1 µM
[7] = second compound 1 µM, first compound 0.0316 µM
[8] = second compound 1 µM, first compound 0.1 µM
[9] = second compound 3.16 µM, first compound 0.0316 µM
[10] = second compound 3.16 µM, first compound 0.1 µM
[11] = second compound 10 µM, first compound 0.0316 µM
[12] = second compound 10 µM, first compound 0.1 µM
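Further: spheroids exposed to the agents for one week.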
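Wherever viability, T/C is given: 100% = DMSO vehicle control wells.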

CC1COCCN1c1cc(C2(S(C)(=N)=O)CC2)nc(-c2ccnc3[nH]ccc23)n1 (centres undefined) + COC1C(OC(N)=O)C(O)C(Oc2ccc3c(O)c(NC(=O)c4ccc(O)c(CC=C(C)C)c4)c(=O)oc3c2C)OC1(C)C
8.17 µM: IC50 (second compound 10 µM)
9.95 µM: IC50 (second compound 0.0316 µM)
> 10 µM: IC50 (second compound 0.316 µM) | IC50 (second compound 1 µM)
8.35 µM: IC50 (second compound 3.16 µM)
7.81 µM: IC50 (second compound 0.1 µM)
inactive: viability, T/C [1] 94.7% | viability, T/C [2] 94.6% | viability, T/C (second compound 0.0316 µM, first compound 0.316 µM) 108% | viability, T/C (second compound 0.0316 µM, first compound 1 µM) 105% | viability, T/C (second compound 0.0316 µM, first compound 3.16 µM) 80.4% | viability, T/C (second compound 0.0316 µM, first compound 10 µM) 49.8% | viability, T/C [3] 105% | viability, T/C [4] 92.2% | viability, T/C (second compound 0.1 µM, first compound 0.316 µM) 95.6% | viability, T/C (second compound 0.1 µM, first compound 1 µM) 93.2% | viability, T/C (second compound 0.1 µM, first compound 3.16 µM) 80.2% | viability, T/C (second compound 0.1 µM, first compound 10 µM) 41.5% | viability, T/C [5] 81.1% | viability, T/C [6] 105% | viability, T/C (second compound 0.316 µM, first compound 0.316 µM) 106% | viability, T/C (second compound 0.316 µM, first compound 1 µM) 101% | viability, T/C (second compound 0.316 µM, first compound 3.16 µM) 87.2% | viability, T/C (second compound 0.316 µM, first compound 10 µM) 52.5% | viability, T/C [7] 102% | viability, T/C [8] 101% | viability, T/C (second compound 1 µM, first compound 0.316 µM) 92.5% | viability, T/C (second compound 1 µM, first compound 1 µM) 88.6% | viability, T/C (second compound 1 µM, first compound 3.16 µM) 72.6% | viability, T/C (second compound 1 µM, first compound 10 µM) 52.8% | viability, T/C [9] 91.8% | viability, T/C [10] 103% | viability, T/C (second compound 3.16 µM, first compound 0.316 µM) 103% | viability, T/C (second compound 3.16 µM, first compound 1 µM) 85.7% | viability, T/C (second compound 3.16 µM, first compound 3.16 µM) 77% | viability, T/C (second compound 3.16 µM, first compound 10 µM) 44.9% | viability, T/C [11] 89.1% | viability, T/C [12] 84.7% | viability, T/C (second compound 10 µM, first compound 0.316 µM) 96% | viability, T/C (second compound 10 µM, first compound 1 µM) 84.2% | viability, T/C (second compound 10 µM, first compound 3.16 µM) 64.7% | viability, T/C (second compound 10 µM, first compound 10 µM) 46.9%

Cn1ncnc1[C@H]1c2n[nH]c(=O)c3cc(F)cc(c23)N[C@@H]1c1ccc(F)cc1 + COC1C(OC(N)=O)C(O)C(Oc2ccc3c(O)c(NC(=O)c4ccc(O)c(CC=C(C)C)c4)c(=O)oc3c2C)OC1(C)C
> 0.1 µM: IC50 (second compound 0.0316 µM) | IC50 (second compound 0.1 µM) | IC50 (second compound 0.316 µM) | IC50 (second compound 1 µM) | IC50 (second compound 3.16 µM) | IC50 (second compound 10 µM)
inactive: viability, T/C (second compound 0.0316 µM, first compound 0.000316 µM) 109% | viability, T/C (second compound 0.0316 µM, first compound 0.001 µM) 93.7% | viability, T/C (second compound 0.0316 µM, first compound 0.00316 µM) 98.5% | viability, T/C (second compound 0.0316 µM, first compound 0.01 µM) 104% | viability, T/C [1] 91.8% | viability, T/C [2] 74% | viability, T/C (second compound 0.1 µM, first compound 0.000316 µM) 107% | viability, T/C (second compound 0.1 µM, first compound 0.001 µM) 102% | viability, T/C (second compound 0.1 µM, first compound 0.00316 µM) 105% | viability, T/C (second compound 0.1 µM, first compound 0.01 µM) 99.9% | viability, T/C [3] 96.8% | viability, T/C [4] 79.8% | viability, T/C (second compound 0.316 µM, first compound 0.000316 µM) 108% | viability, T/C (second compound 0.316 µM, first compound 0.001 µM) 107% | viability, T/C (second compound 0.316 µM, first compound 0.00316 µM) 115% | viability, T/C (second compound 0.316 µM, first compound 0.01 µM) 98% | viability, T/C [5] 96.6% | viability, T/C [6] 86.1% | viability, T/C (second compound 1 µM, first compound 0.000316 µM) 105% | viability, T/C (second compound 1 µM, first compound 0.001 µM) 98.6% | viability, T/C (second compound 1 µM, first compound 0.00316 µM) 91.7% | viability, T/C (second compound 1 µM, first compound 0.01 µM) 105% | viability, T/C [7] 94.6% | viability, T/C [8] 84.5% | viability, T/C (second compound 3.16 µM, first compound 0.000316 µM) 93.7% | viability, T/C (second compound 3.16 µM, first compound 0.001 µM) 89.9% | viability, T/C (second compound 3.16 µM, first compound 0.00316 µM) 89.6% | viability, T/C (second compound 3.16 µM, first compound 0.01 µM) 86.3% | viability, T/C [9] 102% | viability, T/C [10] 79.4% | viability, T/C (second compound 10 µM, first compound 0.000316 µM) 88.6% | viability, T/C (second compound 10 µM, first compound 0.001 µM) 75.6% | viability, T/C (second compound 10 µM, first compound 0.00316 µM) 94.7% | viability, T/C (second compound 10 µM, first compound 0.01 µM) 85.7% | viability, T/C [11] 87.1% | viability, T/C [12] 70.7%

— PubChem BioAssay AID1963830 (Molecular Pharmacology Branch, DTP, NCI, 2024)
